Assay results as given in US20240343733A1, “COMPOUNDS FOR TARGETING DEGRADATION OF IRAK4 PROTEINS” (BIOGEN MA INC., priority 2021, published 2024).

These molecules were tested against T1, IRAK4 (Homo sapiens, UniProt Q9NWZ3) (assay: IRAK4 Degradation Assay, HiBiT Method). Details: 293T cells expressing HiBiT-tagged IRAK4, 6 hours.
T1 construct: 293Tcells expressing HiBiT-tagged IRAK4 were then added into 384-well plates
T1 sequence (Q9NWZ3 1-460): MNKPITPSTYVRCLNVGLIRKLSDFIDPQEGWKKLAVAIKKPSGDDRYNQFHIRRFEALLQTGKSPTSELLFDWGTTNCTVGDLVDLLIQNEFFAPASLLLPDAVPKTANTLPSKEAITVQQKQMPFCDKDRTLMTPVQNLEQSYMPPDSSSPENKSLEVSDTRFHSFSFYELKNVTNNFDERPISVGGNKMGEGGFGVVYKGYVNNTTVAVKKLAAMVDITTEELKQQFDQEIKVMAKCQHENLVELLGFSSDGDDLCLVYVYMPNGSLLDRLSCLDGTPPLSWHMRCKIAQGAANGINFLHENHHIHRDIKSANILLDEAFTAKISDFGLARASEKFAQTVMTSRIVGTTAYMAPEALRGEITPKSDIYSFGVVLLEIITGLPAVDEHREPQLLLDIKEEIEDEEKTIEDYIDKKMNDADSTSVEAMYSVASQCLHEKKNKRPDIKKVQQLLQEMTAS
Assay type: cell-based
In short: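 293T cells with HiBiT knocked in at the C-terminus of endogenous IRAK4, 10,000 per well, treated 6 h at 37 °C with an 11-point half-log series ([…]), in duplicate. Remaining IRAK4 read by Nano-Glo HiBiT lytic luminescence against DMSO-only and media-only controls.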
Work on `CC(C)Oc1cc2nc([C@H]3CC[C@H](CN4CCC(c5ccc(OC6CCC(=O)NC6=O)cc5)CC4)CC3)cn2cc1C(=O)Nc1cccn(C2CC2)c1=O` (some centres unmarked) [Example 166, N-(1-cyclopropyl-2-oxo-1,2-dihydropyridin-3-yl)-2-((1r,4r)-4-((4-(4-((2,6-dioxopiperidin-3-yl)oxy)phenyl)piperidin-1-yl)methyl)cyclohexyl)-7-isopropoxyimidazo[1,2-a]pyridine-6-carboxamide] yielded a DC50 of 10 to 100 nM.
`CC(C)Oc1cc2nc([C@H]3CC[C@H](CN4CCC(c5ccc6c(c5)n(C)c(=O)n6C5CCC(=O)NC5=O)CC4)CC3)cn2cc1C(=O)Nc1cccn(C2CC2)c1=O` (some centres unmarked) [Example 167, N-(1-cyclopropyl-2-oxo-1,2-dihydropyridin-3-yl)-2-((1r,4r)-4-((4-(1-(2,6-dioxopiperidin-3-yl)-3-methyl-2-oxo-2,3-dihydro-1H-benzo[d]imidazol-5-yl)piperidin-1-yl)methyl)cyclohexyl)-7-isopropoxyimidazo[1,2-a]pyridine-6-carboxamide] was tested, and the DC50 was < 10 nM.
Work on `CC(C)Oc1cc2nc([C@H]3CC[C@H](CN4CCC(c5ccc6c(c5)n(C)c(=O)n6C5CCC(=O)NC5=O)C(F)(F)C4)CC3)cn2cc1C(=O)Nc1cccn([C@H]2C[C@H]2F)c1=O` (stereo partly drawn) [Example 168, 2-((1r,4S)-4-((4-(1-(2,6-dioxopiperidin-3-yl)-3-methyl-2-oxo-2,3-dihydro-1H-benzo[d]imidazol-5-yl)-3,3-difluoropiperidin-1-yl)methyl)cyclohexyl)-N-(1-((1S,2R)-2-fluorocyclopropyl)-2-oxo-1,2-dihydropyridin-3-yl)-7-isopropoxyimidazo[1,2-a]pyridine-6-carboxamide] yielded a DC50 of 10 to 100 nM.
Work on `CC(C)Oc1cc2nc([C@H]3CC[C@H](CN4CCC(c5cc6c(cc5F)c(N5CCC(=O)NC5=O)nn6C)C(F)(F)C4)CC3)cn2cc1C(=O)Nc1cnn2cccnc12` (some centres unmarked) [Example 170, 2-((1r,4r)-4-((4-(3-(2,4-dioxotetrahydropyrimidin-1(2H)-yl)-5-fluoro-1-methyl-1H-indazol-6-yl)-3,3-difluoropiperidin-1-yl)methyl)cyclohexyl)-7-isopropoxy-N-(pyrazolo[1,5-a]pyrimidin-3-yl)imidazo[1,2-a]pyridine-6-carboxamide] yielded a DC50 of 10 to 100 nM.
In the case of `CC(C)Oc1cc2nc([C@H]3CC[C@H](CN4CC[C@H](c5ccc6c(N7CCC(=O)NC7=O)nn(C)c6c5)[C@H](O)C4)CC3)cn2cc1C(=O)Nc1cccn([C@H]2C[C@H]2F)c1=O` [Example 171, 2-((1S,4S)-4-(((3S,4R)-4-(3-(2,4-dioxotetrahydropyrimidin-1(2H)-yl)-1-methyl-1H-indazol-6-yl)-3-hydroxypiperidin-1-yl)methyl)cyclohexyl)-N-(1-((1S,2R)-2-fluorocyclopropyl)-2-oxo-1,2-dihydropyridin-3-yl)-7-isopropoxyimidazo[1,2-a]pyridine-6-carboxamide], the DC50 was < 10 nM.
Work on `CC(C)Oc1cc2nc([C@H]3CC[C@H](CN4CCC(c5cc6c(cc5F)c(N5CCC(=O)NC5=O)nn6C)C(F)(F)C4)CC3)cn2cc1C(=O)Nc1cccn([C@H]2C[C@H]2F)c1=O` (some centres unmarked) [Example 172, 2-((1r, 4S)-4-((4-(3-(2,4-dioxotetrahydropyrimidin-1 (2H)-yl)-5-fluoro-1-methyl-1H-indazol-6-yl)-3,3-difluoropiperidin-1-yl)methyl)cyclohexyl)-N-(1-((1 S, 2R)-2-fluorocyclopropyl)-2-oxo-1,2-dihydropyridin-3-yl)-7-isopropoxyimidazo[1,2-a]pyridine-6-carboxamide] yielded a DC50 of 10 to 100 nM.
With `CC(C)Oc1cc2nc([C@H]3CC[C@H](CN4CCC(c5ccc6c(c5)oc(=O)n6C5CCC(=O)NC5=O)CC4)CC3)cn2cc1C(=O)Nc1cnn2cccnc12` (some centres unmarked) [Example 173, 2-((1r,4r)-4-((4-(3-(2,6-dioxopiperidin-3-yl)-2-oxo-2,3-dihydrobenzo[d]oxazol-6-yl)piperidin-1-yl)methyl)cyclohexyl)-7-isopropoxy-N-(pyrazolo[1,5-a]pyrimidin-3-yl)imidazo[1,2-a]pyridine-6-carboxamide] the DC50 was < 10 nM.
`CC(C)Oc1cc2nc([C@H]3CC[C@H](CN4CCC(c5ncc(NC6CCC(=O)NC6=O)cc5F)CC4)CC3)cn2cc1C(=O)Nc1cccn(C2CC2)c1=O` (some centres unmarked) [Example 174, N-(1-cyclopropyl-2-oxo-1,2-dihydropyridin-3-yl)-2-((1r,4r)-4-((4-(5-((2,6-dioxopiperidin-3-yl)amino)-3-fluoropyridin-2-yl)piperidin-1-yl)methyl)cyclohexyl)-7-isopropoxyimidazo[1,2-a]pyridine-6-carboxamide] was tested, and the DC50 was 10 to 100 nM.
`CC(C)Oc1cc2nc([C@H]3CC[C@H](CN4CCC(c5ccc6c(c5)oc(=O)n6C5CCC(=O)NC5=O)CC4)CC3)cn2cc1C(=O)Nc1cccn([C@H]2C[C@H]2F)c1=O` (stereo partly drawn) [Example 175, 2-((1r,4S)-4-((4-(3-(2,6-dioxopiperidin-3-yl)-2-oxo-2,3-dihydrobenzo[d]oxazol-6-yl)piperidin-1-yl)methyl)cyclohexyl)-N-(1-((1S,2R)-2-fluorocyclopropyl)-2-oxo-1,2-dihydropyridin-3-yl)-7-isopropoxyimidazo[1,2-a]pyridine-6-carboxamide] was tested, and the DC50 was < 10 nM.
In the case of `CC(C)Oc1cc2nc([C@H]3CC[C@H](CNCC4(O)CCN(c5ncc(C6CCC(=O)NC6=O)cc5F)CC4)CC3)cn2cc1C(=O)Nc1cnn2cccnc12` (some centres unmarked) [Example 176], the DC50 was < 10 nM.
In the case of `CC(C)Oc1cc2nc([C@H]3CC[C@H](CN4CC[C@H](c5ccc6c(N7CCC(=O)NC7=O)nn(C)c6c5)[C@H](O)C4)CC3)cn2cc1C(=O)Nc1cnn2cccnc12` [Example 177, 2-((1S,4r)-4-(((3S,4R)-4-(3-(2,4-dioxotetrahydropyrimidin-1(2H)-yl)-1-methyl-1H-indazol-6-yl)-3-hydroxypiperidin-1-yl)methyl)cyclohexyl)-7-isopropoxy-N-(pyrazolo[1,5-a]pyrimidin-3-yl)imidazo[1,2-a]pyridine-6-carboxamide], the DC50 was < 10 nM.
With `CC(C)Oc1cc2nc([C@H]3CC[C@H](CN4CC[C@H](c5ccc6c(N7CCC(=O)NC7=O)nn(C)c6c5)[C@H](O)C4)CC3)cn2cc1C(=O)Nc1cccn(C2CC2)c1=O` [Example 178, N-(1-cyclopropyl-2-oxo-1,2-dihydropyridin-3-yl)-2-((S,4r)-4-(((3S,4R)-4-(3-(2,4-dioxotetrahydropyrimidin-1(2H)-yl)-1-methyl-1H-indazol-6-yl)-3-hydroxypiperidin-1-yl)methyl)cyclohexyl)-7-isopropoxyimidazo[1,2-a]pyridine-6-carboxamide] the DC50 was < 10 nM.
With `CC(C)Oc1cc2nc([C@H]3CC[C@H](CN4CC5(CCN(c6ncc(N7CCC(=O)NC7=O)cc6F)CC5)C4)CC3)cn2cc1C(=O)Nc1cccn([C@H]2C[C@H]2F)c1=O` [Example 179, 2-((1r,4S)-4-((7-(5-(2,4-dioxotetrahydropyrimidin-1(2H)-yl)-3-fluoropyridin-2-yl)-2,7-diazaspiro[3.5]nonan-2-yl)methyl)cyclohexyl)-N-(1-((1S,2R)-2-fluorocyclopropyl)-2-oxo-1,2-dihydropyridin-3-yl)-7-isopropoxyimidazo[1,2-a]pyridine-6-carboxamide] the DC50 was < 10 nM.
`CC(C)Oc1cc2nc([C@H]3CC[C@H](CN4CCN(c5ccc(C6CCC(=O)NC6=O)cn5)CC4)CC3)cn2cc1C(=O)Nc1cccn([C@H]2C[C@H]2F)c1=O` (stereo partly drawn) [Example 180, 2-((1r,4S)-4-((4-(5-(2,6-dioxopiperidin-3-yl)pyridin-2-yl)piperazin-1-yl)methyl)cyclohexyl)-N-(1-((1S,2R)-2-fluorocyclopropyl)-2-oxo-1,2-dihydropyridin-3-yl)-7-isopropoxyimidazo[1,2-a]pyridine-6-carboxamide] was tested, and the DC50 was 10 to 100 nM.
For `CC(C)Oc1cc2nc([C@H]3CC[C@H](CN4CC5(CCN(c6ncc(N7CCC(=O)NC7=O)cc6F)CC5)C4)CC3)cn2cc1C(=O)Nc1cnn2cccnc12` [Example 181, 2-((1r,4r)-4-((7-(5-(2,4-dioxotetrahydropyrimidin-1(2H)-yl)-3-fluoropyridin-2-yl)-2,7-diazaspiro[3.5]nonan-2-yl)methyl)cyclohexyl)-7-isopropoxy-N-(pyrazolo[1,5-a]pyrimidin-3-yl)imidazo[1,2-a]pyridine-6-carboxamide], the DC50 was < 10 nM.
In the case of `CC(C)Oc1cc2nc([C@H]3CC[C@H](C(=O)NC4CCN(c5ccc(C6CCC(=O)NC6=O)cn5)CC4)CC3)cn2cc1C(=O)Nc1cnn2cccnc12` (some centres unmarked) [Example 182, 2-((1r,4r)-4-((1-(5-(2,6-dioxopiperidin-3-yl)pyridin-2-yl)piperidin-4-yl)carbamoyl)cyclohexyl)-7-isopropoxy-N-(pyrazolo[1,5-a]pyrimidin-3-yl)imidazo[,2-a]pyridine-6-carboxamide], the DC50 was < 10 nM.
For `CC(C)Oc1cc2nc(C3CCN(C(=O)CC4CC5(C4)CN(c4ccc(C6CCC(=O)NC6=O)cn4)C5)CC3)cn2cc1C(=O)Nc1cccn([C@H]2C[C@H]2F)c1=O` (stereo partly drawn) [Example 183, 2-(1-(2-(2-(5-(2,6-dioxopiperidin-3-yl)pyridin-2-yl)-2-azaspiro[3.3]heptan-6-yl)acetyl)piperidin-4-yl)-N-(1-((1S,2R)-2-fluorocyclopropyl)-2-oxo-1,2-dihydropyridin-3-yl)-7-isopropoxyimidazo[1,2-a]pyridine-6-carboxamide], the DC50 was < 10 nM.
